Measured values as given in patent US9333265B2, “Organic-inorganic hybrid composite of polymerized nitroxide compound and inorganic particles” (UNIVERSITY OF TSUKUBA, priority 2012, dated 2016).

What was measured:
[1] = Blood uptake suppression after intraperitoneal administration (ESR signal in blood); type: in vivo
From the text: Normally, low-molecular-weight compounds are taken up into the blood after intraperitoneal administration, and are at risk of dispersing throughout the body.

[2] = high-dosage administration; cited from earlier work

SMILES: CC1(C)CCCC(C)(C)N1[O] [TEMPO]
- presence in blood after intraperitoneal administration (ESR signal) [1]: present in blood for an hour or more
- side-effects [2]: reduced blood pressure and inhibition of the mitochondrial energy-transfer system
